In patent US20230407243A1, “GENETIC PLATFORM TO INVESTIGATE THE FUNCTIONS OF BACTERIAL DRUG EFFLUX PUMPS” (priority 2022, published 2023):

Assays:
Assay in all cases: MIC susceptibility profiling, efflux platform
Type in all cases: cell-based, Escherichia coli
EKO-35 araC::acrB = settings: for Minimum Inhibitory Concentration, EKO-35 araC::acrB / MIC: Table 13A, non-porinated, technical duplicate; for Fold change of MICs: EKO-35 araC::acrB compared to EKO-35; for MIC: Escherichia coli, read-out: Minimum Inhibitory Concentration, EKO-35 araC::acrB
Method in brief: (§1)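 Overnight LB cultures were grown at 37 °C with aeration, then washed into PBS, pH 7.4, to OD600 ~1.0. A 1/2000 dilution in MHB II was exposed to compound dilution series for 18 h at 37 °C. The MIC was taken from corrected OD600.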

EKO-35 araC::acrD = settings: for Fold change of MICs: EKO-35 araC::acrD compared to EKO-35; for Minimum Inhibitory Concentration, EKO-35 araC::acrD / MIC: Table 13A, non-porinated, technical duplicate; for MIC: Escherichia coli, read-out: Minimum Inhibitory Concentration, EKO-35 araC::acrD
Method in brief: as §1

EKO-35 araC::emrAB = settings: for Fold change of MICs: EKO-35 araC::emrAB compared to EKO-35; for Minimum Inhibitory Concentration, EKO-35 araC::emrAB / MIC: Table 13B, non-porinated, technical duplicate; for MIC: Escherichia coli, read-out: Minimum Inhibitory Concentration, EKO-35 araC::emrAB
Method in brief: as §1

EKO-35 araC::emrKY = settings: for Fold change of MICs: EKO-35 araC::emrKY compared to EKO-35; for Minimum Inhibitory Concentration, EKO-35 araC::emrKY / MIC: Table 13B, non-porinated, technical duplicate; for MIC: Escherichia coli, read-out: Minimum Inhibitory Concentration, EKO-35 araC::emrKY
Method in brief: as §1

EKO-35 araC::macAB = settings: for Fold change of MICs: EKO-35 araC::macAB compared to EKO-35; for Minimum Inhibitory Concentration, EKO-35 araC::macAB / MIC: Table 13B, non-porinated, technical duplicate; for MIC: Escherichia coli, read-out: Minimum Inhibitory Concentration, EKO-35 araC::macAB
Method in brief: as §1

EKO-35 araC::mdtEF = settings: for Fold change of MICs: EKO-35 araC::mdtEF compared to EKO-35; for Minimum Inhibitory Concentration, EKO-35 araC::mdtEF / MIC: Table 13A, non-porinated, technical duplicate; for MIC: Escherichia coli, read-out: Minimum Inhibitory Concentration, EKO-35 araC::mdtEF
Method in brief: as §1

[1] = system: EKO-35 araC::mexCD (MexCD from P. aeruginosa); settings: for Fold change of MICs: EKO-35 araC::mexCD compared to EKO-35; for Minimum Inhibitory Concentration, EKO-35 araC::mexCD / MIC: Table 13B, non-porinated, technical duplicate; for MIC: read-out: Minimum Inhibitory Concentration, EKO-35 araC::mexCD
Method in brief: as §1

Compound	Minimum Inhibitory Concentration, EKO-35 araC::acrB (EKO-35 araC::acrB) [µg/mL]	Fold change of MICs (EKO-35 araC::acrD) [fold]	Minimum Inhibitory Concentration, EKO-35 araC::acrD (EKO-35 araC::acrD) [µg/mL]	Fold change of MICs (EKO-35 araC::emrAB) [fold]	Minimum Inhibitory Concentration, EKO-35 araC::emrAB (EKO-35 araC::emrAB) [µg/mL]	Fold change of MICs (EKO-35 araC::emrKY) [fold]	Minimum Inhibitory Concentration, EKO-35 araC::emrKY (EKO-35 araC::emrKY) [µg/mL]	Fold change of MICs (EKO-35 araC::macAB) [fold]	Minimum Inhibitory Concentration, EKO-35 araC::macAB (EKO-35 araC::macAB) [µg/mL]	Fold change of MICs (EKO-35 araC::mdtEF) [fold]	Minimum Inhibitory Concentration, EKO-35 araC::mdtEF (EKO-35 araC::mdtEF) [µg/mL]	Fold change of MICs [1] [fold]	Minimum Inhibitory Concentration, EKO-35 araC::mexCD [1] [µg/mL]	Fold change of MICs (EKO-35 araC::acrB) [fold]	MIC (EKO-35 araC::acrD) [µg/mL]	MIC (EKO-35 araC::emrKY) [µg/mL]	MIC (EKO-35 araC::mdtEF) [µg/mL]	MIC [1] [µg/mL]	other results
O=[N+]([O-])c1ccc2c(c1)C(=NO)c1cc([N+](=O)[O-])ccc1-2 [compound 11]	320	8	0.625	512	40	1	0.078	1	0.078	128	10	16	1.25						
deoxycholate	1500	4	1500	4	1500	1	375	1	187.5	4	1500	4	1500	4					efflux pump-mediated resistance vs EKO-35 (EKO-35 araC::acrD; AcrD): confirmed; efflux pump-mediated resistance vs EKO-35 (EKO-35 araC::emrKY; EmrKY): could not substantiate
CCn1cc(C(=O)O)c(=O)c2cc(F)c(N3CCNCC3)cc21 [norfloxacin]		1		1				1		1		2		4	0.02	0.01	0.02	0.039	MIC (EKO-35 araC::emrAB): 0.02 µg/mL; MIC (EKO-35 araC::macAB): 0.02 µg/mL
C[n+]1c2cc(N)ccc2cc2ccc(N)cc21.[Cl-] [acriflavine]	3.125	2	0.195	1	0.098	1	0.098	1	0.098	2	0.195	8	0.781	32					restoration of resistance to wild-type levels by acrB alone (EKO-35 araC::acrB; overexpression of acrB in EKO-35): did not restore resistance to wild-type levels
O=C(NC(=O)N1CCc2c([nH]c3ccccc23)C1C(F)(F)F)c1ccccc1 (stereo not drawn) [compound 13]	320	8	320	8	320	1	40	1	40	8	320	8	320	8					
O=C(Nc1ccc(C(F)(F)F)cc1)Nc1ccc(C(F)(F)F)cc1 [compound 7]	320	1	320	1	320	1	320	1	320	1	320	1	320	1					
C=C1CCO[C@]2([C@@H](O)[C@@](C)(O)CO)NC(=O)[C@@]1(O)NC2=O [Bicyclomycin]	200	1	200	1	200	1	200	1	200	1	200	1	200	1					
CN[C@@H]1[C@H](O)[C@H](NC)[C@H]2O[C@@]3(O)C(=O)C[C@@H](C)O[C@H]3O[C@@H]2[C@H]1O [Spectinomycin]		1		1		1		1		1		1		1	25	25	25	25	MIC (EKO-35 araC::acrB): 25 µg/mL; MIC (EKO-35 araC::emrAB): 25 µg/mL; MIC (EKO-35 araC::macAB): 25 µg/mL
C[C@@H]1O[C@@H]1P(=O)(O)O [fosfomycin]		1		1		1		1				1		1	1.56	1.56	1.56	1.56	MIC (EKO-35 araC::acrB): 1.56 µg/mL
N#CC(C#N)=NNc1cccc(Cl)c1 [CCCP]	12.5	1	6.25	4	50	1	12.5	1	12.5	1	12.5	1	12.5	1					efflux pump-mediated resistance vs EKO-35 (EKO-35 araC::emrAB; EmrAB): conferred resistance
COC(=O)c1sc(N2CCCC2)c(C#N)c1-c1cccs1 [compound 10]	160	1	160	1	160	1	160	1	160	1	160	1	160	1					
CN(C)c1ccc(O)c2c1C[C@H]1C[C@H]3[C@H](N(C)C)C(O)=C(C(N)=O)C(=O)[C@@]3(O)C(O)=C1C2=O [minocycline]		2		1		1		1		1		1		8	0.098	0.049	0.049	0.049	MIC (EKO-35 araC::acrB): 0.391 µg/mL; MIC (EKO-35 araC::emrAB): 0.049 µg/mL; MIC (EKO-35 araC::macAB): 0.049 µg/mL
CC(C)(C)c1cc(C(=O)NNC(=O)Nc2cccc3ccccc23)n(Cc2ccc(F)cc2)n1 [compound 4]	320	16	320	16	320	1	20	1	20	16	320	16	320	16					
